{
  "source": "patent US20100048630A1",
  "about": "“METHODS FOR TREATING CNS DISORDERS” (priority 2008, published 2010)",
  "key": {"Male NMRI mice [1]": {"test_system": "Male NMRI mice", "experiment": "Forced swimming test (FST)", "type": "in vivo", "details": "doses of 5 and 10 mg/kg; may be a false positive from nonspecific stimulatory effect", "procedure": "(§1) Male NMRI mice weighing 24-26 g were used. The animals were kept in polycarbonate cages in a thermostatically controlled room at 24±2° C. and at a relative humidity (RH) of 50±10%. The room was artificially illuminated from 6 am to 6 pm and the mice were given commercial pellet rat-mouse feed, autoclaved at 105° C. and sterile filtered tap water, ad libitum.\n(§2) An aqueous solution of radiprodil, in the form of a complex with heptakis(2,6-di-O-methyl)-β-cyclodextrin (DIMEB), was administered orally at doses of 2.5, 5 and 10 mg/kg (calculated for non-complexed radiprodil). […]\nThe forced swimming test (FST) was measured in glass cylinders (height: […], diameter 14 cm) containing 12 cm of water, maintained at 23-25° C. […] The duration of immobility was recorded using a stopwatch. […]\nIn the forced swimming test, the mean±standard error on the mean (s.e.m) immobility time in seconds was measured. […] The mean (±s.e.m) “FST-activity” value was also calculated for each group and submitted to the same data analysis process as the immobility data.\n(§3) The significance of the drug effect was determined by ANOVA followed by post-hoc Duncan-test. The percentage change in the horizontal activity, immobility or “FST-activity” variables were calculated for each dose according to the equation; […]"}, "Male NMRI mice [2]": {"test_system": "Male NMRI mice", "experiment": "Spontaneous locomotor activity (four-channel activity monitor)", "type": "in vivo", "details": "doses of 5 and 10 mg/kg", "procedure": "as §1, §2\nSpontaneous locomotor activity was measured in a four-channel activity monitor manufactured by Farmakotechnika (Hungary). […] The photocell beam, when broken, signaled a count, which was then recorded by a computer.\nEach group consisted of 10 animals. […] The horizontal and vertical movements were determined as the number of beam interruptions collected in 15 minute intervals throughout the 1 hour period.\nIn the spontaneous locomotor activity test, the mean (±s.e.m) value of one hour horizontal activity data (in counts) of each group was calculated.\nas §3"}},
  "data": [
    {"smiles": "O=C(Nc1ccc2[nH]c(=O)oc2c1)C(=O)N1CCC(Cc2ccc(F)cc2)CC1", "note": "[radiprodil, 2-[4-(4-fluoro-benzyl)-piperidine-1-yl]-2-oxo-N-(2-oxo-2,3-dihydro-benzoxazol-6-yl)acetamide]", "values": [
      {"measurement": "effect in the forced swimming test", "setting": "Male NMRI mice [1]", "value": "significant effects"},
      {"measurement": "effect on spontaneous motor activity of the mice", "setting": "Male NMRI mice [2]", "value": "stimulated"}
    ]}
  ]
}
